Assay [1] deals with T1, Bile acid receptor (Homo sapiens, UniProt Q96RI1).
T1 sequence (Q96RI1 whole entry): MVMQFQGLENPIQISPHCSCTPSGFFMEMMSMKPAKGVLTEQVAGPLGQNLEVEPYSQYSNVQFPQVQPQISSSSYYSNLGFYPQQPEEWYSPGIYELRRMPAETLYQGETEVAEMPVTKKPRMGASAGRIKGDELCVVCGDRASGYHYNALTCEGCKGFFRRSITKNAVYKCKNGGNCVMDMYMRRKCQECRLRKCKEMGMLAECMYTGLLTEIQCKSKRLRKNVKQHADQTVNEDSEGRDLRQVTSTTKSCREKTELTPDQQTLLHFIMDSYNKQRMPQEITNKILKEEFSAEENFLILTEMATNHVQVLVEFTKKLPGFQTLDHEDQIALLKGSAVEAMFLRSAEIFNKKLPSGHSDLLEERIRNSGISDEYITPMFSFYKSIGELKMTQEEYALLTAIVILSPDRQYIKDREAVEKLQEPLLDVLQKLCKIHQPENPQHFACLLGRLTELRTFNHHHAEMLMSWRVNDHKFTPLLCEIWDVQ
In words: Agonist activity at FXR expressed in african green monkey CV1 cells by luciferase reporter transient transfection assay. The format is functional, cell-based, CV-1. In general terms: In a reporter assay the amount or activity of a reporter protein is the signal.

The target of assay [2] is T1, Bile acid receptor. In words: Agonist activity at FXR assessed as receptor-SRC-1 peptide interaction by FRET assay. The format is functional.
Assay [3] concerns the target T2, Bile acid receptor (Homo sapiens) (UniProt Q96RI1).
T2 sequence (whole entry): T1 sequence (Q96RI1 whole entry)
In words: Agonist activity at FXR assessed as receptor-SRC-1 peptide interaction by FRET assay relative to GW-4064. The format is functional.

Assay [4] addresses T2, Bile acid receptor (Homo sapiens). Description: Agonist activity at FXR expressed in african green monkey CV1 cells by luciferase reporter transient transfection assay relative to GW-4064. In kind it is functional, cell-based. Conditions: CV-1.

As a reminder, the EC50 is the concentration that produces a half-maximal response.

As for `CC(C)c1onc(-c2c(Cl)cccc2Cl)c1COc1ccc(-c2ccc3cc(C(=O)O)ccc3c2)cc1`, the EC50 in assay [1] stood at 45 nM; in assay [2] it was 100 nM. Further, the figures for the %max in assay [3] and in assay [4] were 90% and 87%, respectively.
Taken in the same sequence, the figures for `CC(C)c1onc(-c2c(Cl)cccc2Cl)c1COc1ccc(-c2ccc3ccc(C(=O)O)cc3c2)cc1` were 500 nM, 420 nM, 69% and 90%.
Taken in the same sequence, the figures for `CC(C)c1onc(-c2c(Cl)cccc2Cl)c1COc1ccc(-c2ccc3cccc(C(=O)O)c3c2)cc1` were 3300 nM, 2300 nM, 52% and 27%.

The record behind these values is ChEMBL document CHEMBL1155854, “Conformationally constrained farnesoid X receptor (FXR) agonists: Naphthoic acid-based analogs of GW 4064” (Bioorg Med Chem Lett, 2008).
